# Test results taken from patent US20210284668A1, “GOLD (I)-PHOSPHINE 1,2,3-TRIAZOLE DERIVATIVES WITH ANTIBIOTIC PROPERTIES” (Centre National de la Recherche Scientifique, priority 2018, published 2021).
# Values joined by “and” are separate entries in the source; they are usually repeats but may differ in a detail not shown here. Equal values may be shown once.
# Assays:
# [1] = test system: E. coli ATCC25922; assay: MIC by microdilution, E. coli ATCC25922; format: cell-based, Escherichia coli; conditions: E. coli ATCC25922 (wild-type), in duplicate
# Experimental: (§1) The antibacterial profile of each derivative was evaluated by the standard microdilution method for susceptibility testing on 16 different strains, following the guidelines of CLSI. The selected panel included: • S. aureus ATCC25923 (MecA negative, wild-type) • S. aureus ATCC29213 (MecA negative, wild-type) • S. aureus ATCC700699 (MecA positive, glycopeptide resistant) • S. aureus ST20131365 (MecA positive, glycopeptide resistant) • S. epidermidis ATCC14990 (MecA negative, wild-type) • S. epidermidis ATCC35984 (MecA positive) • S. epidermidis ST20140436 (MecA positive, glycopeptide resistant) • S. epidermidis ST20150446 (MecA positive, glycopeptide resistant) • E. faecalis JH2-2 (wild-type) • E. faecalis UCN41 (VanA positive, glycopeptide resistant) • E. faecalis V583 (VanB positive, glycopeptide resistant) • E. faecium ATCC19434T (wild-type) • E. faecium BM4147 (VanA positive, glycopeptide resistant) • E. faecium AUS0004 (VanB positive, glycopeptide resistant) • E. coli ATCC25922 (wild-type) • Clostridium difficile ATCC9689 (wild-type)
# (§2) Both series issued from the SAR study were evaluated for their antibacterial activity on a panel of characterized strains obtained from the French National Reference Centers for Staphylococci (Lyon, Pr. Fréderique Laurent) and for Enterococci (Caen, Pr. Vincent Cattoir), respectively. As shown in the following tables, both series contain very active compounds on multi-resistant Gram-positive bacteria (Minimal Inhibitory Concentrations lower than comparator antibiotic ampicillin). Furthermore, a very important antibacterial effect has been shown too on a strain of Clostridium difficile, a Gram-positive, spore-forming, bacillus responsible for post-antibiotic diarrhoae.
# (§3) The antibacterial activity of test compounds was evaluated on a selected panel of Gram-positive (4 Staphylococcus aureus, 4 Staphylococcus epidermidis, 3 Enterococcus faecalis, 3 Enterococcus faecium, 1 Clostridium difficile) and Gram-negative strains (1 Escherichia coli, 1 Klebsiella pneumoniae, 1 Pseudomonas aeruginosa, 1 Acinetacter baumannii) with known features of antibiotic resistance (from wild-type susceptibility to multi-drug resistance). The Minimal Inhibitory Concentration (MIC) of test compounds was determined in duplicate by the microdilution method in 96-well microplates with a final volume of 100 μL per well and Mueller-Hinton broth as the growth medium, as recommended by the CLSI (Clinical and Laboratory Standards Institute, document Mo7-A10, USA).
# [2] = test system: S. epidermidis ATCC35984; assay: MIC by microdilution, S. epidermidis ATCC35984; format: cell-based, Staphylococcus epidermidis; conditions: S. epidermidis ATCC35984 (MecA positive), in duplicate
# Experimental: as §1, §2, §3
# [3] = test system: E. faecalis UCN41; assay: MIC by microdilution, E. faecalis UCN41; format: cell-based, Enterococcus faecalis; set-up: unit not given here; conditions: E. faecalis UCN41 (VanA positive, glycopeptide resistant), in duplicate
# Experimental: as §1, §2, §3
# [4] = test system: S. aureus ATCC700699; assay: MIC by microdilution, S. aureus ATCC700699; format: cell-based, Staphylococcus aureus; set-up: unit not given here; conditions: S. aureus ATCC700699 (MecA positive, glycopeptide resistant), in duplicate
# Experimental: as §1, §2, §3
# [5] = test system: E. faecalis V583; assay: MIC by microdilution, E. faecalis V583; format: cell-based, Enterococcus faecalis; conditions: E. faecalis V583 (VanB positive, glycopeptide resistant), in duplicate
# Experimental: as §1, §2, §3
# [6] = test system: E. faecium AUS0004; assay: MIC by microdilution, E. faecium AUS0004; format: cell-based, Enterococcus faecium; conditions: E. faecium AUS0004 (VanB positive, glycopeptide resistant), in duplicate
# Experimental: as §1, §2, §3
# [7] = test system: S. aureus ST20131365; assay: MIC by microdilution, S. aureus ST20131365; format: cell-based, Staphylococcus aureus; conditions: S. aureus ST20131365 (MecA positive, glycopeptide resistant), in duplicate
# Experimental: as §1, §2, §3
# [8] = test system: E. faecium ATCC19434T; assay: MIC by microdilution, E. faecium ATCC19434T; format: cell-based, Enterococcus faecium; set-up: unit not given here; conditions: E. faecium ATCC19434T (wild-type), in duplicate
# Experimental: as §1, §2, §3
# [9] = test system: E. faecium BM4147; assay: MIC by microdilution, E. faecium BM4147; format: cell-based, Enterococcus faecium; set-up: unit not given here; conditions: E. faecium BM4147 (VanA positive, glycopeptide resistant), in duplicate
# Experimental: as §1, §2, §3
# [10] = test system: S. epidermidis ST20150446; assay: MIC by microdilution, S. epidermidis ST20150446; format: cell-based, Staphylococcus epidermidis; conditions: S. epidermidis ST20150446 (MecA positive, glycopeptide resistant), in duplicate
# Experimental: as §1, §2, §3
# [11] = test system: panel of Gram-positive and Gram-negative strains; assay: Antibacterial profile on the selected panel of strains; format: cell-based; conditions: summary of Tables 1-12
# Experimental: as §1, §2, §3
# [12] = test system: Clostridium difficile ATCC700057; assay: MIC by microdilution, Clostridium difficile; format: cell-based; conditions: strain ATCC70057 [sic] (Tables 1-2) / ATCC700057 (Tables 3-10), in duplicate
# [13] = test system: E. faecalis JH2-2; assay: MIC by microdilution, E. faecalis JH2-2; format: cell-based, Enterococcus faecalis; set-up: unit not given here; conditions: E. faecalis JH2-2 (wild-type), in duplicate
# Experimental: as §1, §2, §3
# [14] = test system: S. epidermidis ATCC14990; assay: MIC by microdilution, S. epidermidis ATCC14990; format: cell-based, Staphylococcus epidermidis; conditions: S. epidermidis ATCC14990 (MecA negative, wild-type), in duplicate
# Experimental: as §1, §2, §3
# [15] = test system: S. aureus ATCC25923; assay: MIC by microdilution, S. aureus ATCC25923; format: cell-based, Staphylococcus aureus; conditions: S. aureus ATCC25923 (MecA negative, wild-type), Mueller-Hinton broth, in duplicate
# Experimental: as §1, §2, §3
# [16] = test system: S. epidermidis ST20140436; assay: MIC by microdilution, S. epidermidis ST20140436; format: cell-based, Staphylococcus epidermidis; conditions: S. epidermidis ST20140436 (MecA positive, glycopeptide resistant), in duplicate
# Experimental: as §1, §2, §3
Structure (SMILES),Minimal Inhibitory Concentration (MIC) [1],Minimal Inhibitory Concentration (MIC) [2],Minimal Inhibitory Concentration (MIC) [3],Minimal Inhibitory Concentration (MIC) [4],Minimal Inhibitory Concentration (MIC) [5],Minimal Inhibitory Concentration (MIC) [6],Minimal Inhibitory Concentration (MIC) [7],Minimal Inhibitory Concentration (MIC) [8],Minimal Inhibitory Concentration (MIC) [9],Minimal Inhibitory Concentration (MIC) [10],antimicrobial / antibacterial activity (in words) [11],Minimal Inhibitory Concentration (MIC) [12],Minimal Inhibitory Concentration (MIC) [13],Minimal Inhibitory Concentration (MIC) [14],Minimal Inhibitory Concentration (MIC) [15],Minimal Inhibitory Concentration (MIC) [16]
CC[P+](CC)(CC)[Au-][c]1nn[nH]c1CN1CCOCC1 [TMB32],>8,≤0.06,0.25,0.125 and 0.25,0.25,0.25,0.125,0.25,0.25,0.125 and 0.25,have antimicrobial activity,≤0.06,0.125,≤0.06,–,–
"CC(=O)OC[C@H]1O[C@@H]([S-])[C@H](OC(C)=O)[C@@H](OC(C)=O)[C@@H]1OC(C)=O.CCP(CC)CC.[Au+] [Auranofin, reference compound]",–,≤0.06,–,≤0.06,–,–,–,≤0.06,–,–,–,–,–,≤0.06,–,–
C#CCOC(=O)N[C@@H](C(=O)N[C@@H]1C(=O)N2[C@@H]1SC(C)(C)[C@@H]2C(=O)O)c1ccccc1 [TMB2],–,–,–,–,–,–,–,–,–,–,do not show an antibacterial activity,–,–,–,–,–
CC[P+](CC)(CC)[Au-][c]1nn[nH]c1CNc1c(F)cc2c(=O)c(C(=O)O)cn3c2c1OCC3C (centres unmarked) [TMB49],–,≤0.06,1,0.25,–,–,–,0.5 and 1,1,–,have antimicrobial activity,–,1,≤0.06,0.125,–
CC(=O)O.CC[P+](CC)(CC)[Au-][c]1nn[nH]c1CCN [TMB50],–,≤0.06,0.5,0.125,–,–,–,0.25,0.25,–,have antimicrobial activity,–,0.25,≤0.06,0.125,–
CC[P+](CC)(CC)[Au-][c]1nn[nH]c1CNC(=O)NC(C(=O)NC1C(=O)N2C1SC(C)(C)C2C(=O)O)c1ccccc1 (centres unmarked) [TMB24],>8,0.125,0.25,0.125 and 0.25,0.25 and 0.5,0.5,0.25,0.5,0.5,–,have antimicrobial activity,≤0.06,0.25 and 0.5,≤0.06,0.125,–
CC[P+](CC)(CC)[Au-][c]1nn[nH]c1CNC(=O)NC(C(=O)O)c1ccccc1 (centres unmarked) [TMB52],–,≤0.06,0.25,0.125,–,–,–,0.25,0.25,–,have antimicrobial activity,–,0.25,≤0.06,–,–
"C[C@@H]1COc2c(N3CCN(C)CC3)c(F)cc3c(=O)c(C(=O)O)cn1c23 [TMB47, Ofloxacin, reference compound]",–,0.125,2,>8,–,–,–,4,1,–,have antimicrobial activity,–,2,0.25,0.25,–
CC[P+](CC)(CC)[Au-][c]1nn[nH]c1CCC(=O)N[C@H](CO)C(=O)O [TMB38],–,≤0.06,0.125,0.125,0.125,0.125,≤0.06,≤0.06,0.125,≤0.06,have antimicrobial activity,0.125 and 0.25,0.125,≤0.06,≤0.06,≤0.06
C#CCNc1c(F)cc2c(=O)c(C(=O)O)cn3c2c1OCC3C (centres unmarked) [TMB51],–,2,>8,>8,–,–,–,>8,>8,–,do not show an antibacterial activity,–,>8,4,2,–
CC[P+](CC)(CC)[Au-][c]1nn[nH]c1CN1C(=O)NC2CSC(CCCCC(=O)O)C21 (centres unmarked) [TMB48],–,0.125,1,0.5,–,–,–,1,2,–,have antimicrobial activity,–,1,0.125,0.25,–
